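Cells were grown in 96-well plates and exposed to each compound for 48 hours at five concentrations; endpoints were interpolated linearly between bracketing concentrations, or set to the highest concentration if not reached. GI50: concentration for 50% inhibition of growth. TGI marks complete inhibition of growth.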 Where a SMILES comes first, the peptide text is derived from it. The star is where a group is joined. ONb = O=[N+]([O-])c1ccc(CO*)cc1; Boc = CC(C)(C)OC(=O)*
Tests used:
Assay in all cases: NCI anticancer screen, dose series, 48 h
BT-549 breast = test system: BT-549 breast
HCC-2998 colon = test system: HCC-2998 colon
OVCAR-5 ovarian = test system: OVCAR-5 ovarian
PC-3 prostate = test system: PC-3 prostate
SNB-19 CNS = test system: SNB-19 CNS
SR leukemia = test system: SR leukemia
SW-620 colon = test system: SW-620 colon
UO-31 renal = test system: UO-31 renal
NCI-H226 lung = test system: NCI-H226 lung
HL-60(TB) leukemia = test system: HL-60(TB) leukemia

| SMILES | TGI (BT-549 breast) | TGI (HCC-2998 colon) | TGI (OVCAR-5 ovarian) | TGI (PC-3 prostate) | TGI (SNB-19 CNS) | TGI (SR leukemia) | TGI (SW-620 colon) | TGI (UO-31 renal) | TGI (NCI-H226 lung) | TGI (HL-60(TB) leukemia) | GI50 (BT-549 breast) | GI50 (HL-60(TB) leukemia) | GI50 (NCI-H226 lung) | GI50 (OVCAR-5 ovarian) | GI50 (PC-3 prostate) | GI50 (SNB-19 CNS) | GI50 (SW-620 colon) | GI50 (UO-31 renal) | GI50 (HCC-2998 colon) | GI50 (SR leukemia) |
| --- | --- | --- | --- | --- | --- | --- | --- | --- | --- | --- | --- | --- | --- | --- | --- | --- | --- | --- | --- | --- |
| O=C1/C(=C/c2cccc(Br)c2)CSC/C1=C\c1cccc(Br)c1 | 4.47 µM | 3.3 µM | 15.5 µM | 10.4 µM | 10.6 µM | > 100 µM | 11.2 µM | 3.71 µM |  |  |  |  |  |  |  |  |  |  |  |  |
| CN1C(=O)[C@@H]2[C@@H]3c4ccccc4N(S(=O)(=O)C(F)(F)F)[C@@H]3c3[nH]c4ccccc4c3[C@@H]2C1=O | > 100 µM | > 100 µM | > 100 µM | > 100 µM | > 100 µM | 43 µM | > 100 µM | > 100 µM | > 100 µM |  |  |  |  |  |  |  |  |  |  |  |
| CC(C)C1=CCC2C(=C1)CCC1C(C)(C(=O)O)CCCC21C (stereo not drawn) (tested in a mixture with another compound) | > 100 µM | > 100 µM | > 100 µM | > 100 µM |  | > 100 µM | > 100 µM | > 100 µM | > 100 µM | > 100 µM |  |  |  |  |  |  |  |  |  |  |
| CCCCN1C(=O)c2c(-c3sccc3N)sc(-c3sccc3N)c2C1=O | > 88.9 µM | > 100 µM | > 78.9 µM | > 100 µM | 44.2 µM | > 23.1 µM | > 100 µM | > 51 µM | 42.7 µM |  |  |  |  |  |  |  |  |  |  |  |
| O=C(/C=C/c1ccc(O)c(O)c1)c1cc(O)cc(O)c1 | 24.7 µM |  | 28.9 µM | 28.5 µM | 28.5 µM | > 100 µM |  | 22.6 µM | 51.5 µM |  |  |  |  |  |  |  |  |  |  |  |
| Cc1c2cnccc2c(C)c2c1c1ccccc1n2CCCCCCNCc1ccccc1 |  | 4.86 µM | 3.31 µM |  | 3.75 µM |  | 1.67 µM | 3.79 µM |  | 9.35 µM |  |  |  |  |  |  |  |  |  |  |
| Cc1cccnc1/N=C/c1c(O)n(C)c(=O)[nH]c1=O | > 100 µM |  | > 100 µM | > 100 µM | > 100 µM |  | > 100 µM | > 100 µM | > 100 µM | > 100 µM |  |  |  |  |  |  |  |  |  |  |
| CCCCNC(=S)Nc1nc(C(=O)NNC(=S)NC2CCCCC2)cs1 | > 100 µM | > 100 µM | > 100 µM | > 100 µM |  | 35.4 µM | > 100 µM | > 100 µM | > 100 µM |  |  |  |  |  |  |  |  |  |  |  |
| CO/N=C(\C)COc1ccc2c(=O)c(-c3ccccc3)coc2c1 | 38.8 µM |  | 43.8 µM | > 100 µM | > 100 µM |  | > 100 µM | 46.3 µM | > 100 µM | > 100 µM | 18 µM | 37.7 µM | 36.4 µM | 3.23 µM | 34.5 µM | 17.7 µM | > 100 µM | 22.2 µM |  |  |
| CCc1ccc2nc(-c3ccc(O)cc3)sc2c1 | 31.1 µM |  | 28.6 µM | 29 µM | 35.5 µM |  | 38 µM | 24.4 µM | 30.1 µM | 10.2 µM |  |  |  |  |  |  |  |  |  |  |
| Cc1cc(NC[C@H](O)[C@H](O)[C@H](O)CO)c(Sc2cc(=O)[nH]c(=O)[nH]2)cc1C | > 62.5 µM | > 62.5 µM | > 62.5 µM | > 62.5 µM | > 62.5 µM | > 62.5 µM | > 62.5 µM | > 62.5 µM | > 62.5 µM |  |  |  |  |  |  |  |  |  |  |  |
| Cn1c2ccccc2c2c(=O)[nH]c(=O)[nH]c21 | > 100 µM | > 100 µM | > 100 µM |  | > 100 µM | > 100 µM | > 100 µM | > 100 µM | > 100 µM | > 100 µM |  |  |  |  |  |  |  |  |  |  |
| O=C1CCCC/C1=C\c1ccc(Br)cc1 | 28.7 µM | 44.4 µM |  | > 100 µM | 13.2 µM | > 100 µM | > 100 µM | 29.6 µM |  | 7.23 µM |  |  |  |  |  |  |  |  |  |  |
| CCCCCCCCCCCCCC[S+](C)C |  | 3.49 µM | > 10 µM | 2.98 µM | 2.84 µM | 2.35 µM | > 10 µM | > 10 µM | 5.13 µM | 2.47 µM |  |  |  |  |  |  |  |  |  |  |
| O=c1[nH]c(Nc2cc(Cl)cc(Cl)c2)nc2nc[nH]c12 | > 75 µM | > 75 µM | > 75 µM | > 75 µM | > 75 µM |  | > 75 µM | > 75 µM | > 75 µM |  |  |  |  |  |  |  |  |  |  |  |
| CC(C)CC(NC(=O)OC(C)(C)C)C(=O)NC(CCC(=O)OCc1ccc([N+](=O)[O-])cc1)C(=O)OCc1ccc([N+](=O)[O-])cc1 (stereo not drawn) (Boc-Leu-Glu(ONb)-ONb; configuration not given here) |  | 44.6 µM | > 100 µM | > 100 µM | > 100 µM | 37.1 µM | > 100 µM | > 100 µM |  | 19.1 µM |  |  |  |  |  |  |  |  |  |  |
| CC(C)[Si](OC1=CCC[C@H]2NC(=O)[C@@H](Cc3ccccc3)[C@@]12C)(C(C)C)C(C)C | 24.1 µM | 4.42 µM | 21.3 µM | 12.3 µM | 22.5 µM | 7.19 µM | 9.16 µM | 22.3 µM |  | 7.82 µM |  |  |  |  |  |  |  |  |  |  |
| N#CCCC1(CCC#N)CCCCCCCCC(CCC#N)(CCC#N)C(=O)C1=O |  | > 100 µM | > 100 µM | > 100 µM | > 100 µM | > 100 µM | > 100 µM |  | > 100 µM | > 100 µM |  |  |  |  |  |  |  |  |  |  |
| CC(=O)O[C@@H]1C2=C(C)C=C(O2)[C@H]2O[C@]2(C)C[C@H]2C=C(C(=O)O2)[C@H](OC(C)=O)CC1[C@@]1(C)CO1 (stereo partly drawn) | 48.5 µM | > 100 µM | 76.8 µM | > 100 µM | > 100 µM | 47.5 µM | 26.1 µM | 51.4 µM | > 100 µM |  |  |  |  |  |  |  |  |  |  |  |
| CCOC(=O)NC(NC1=NCCS1)(C(=O)OCC)C(F)(F)F (stereo not drawn) |  | > 100 µM | > 100 µM | > 100 µM | > 100 µM | > 100 µM | > 100 µM | > 100 µM | > 100 µM | > 100 µM |  |  |  |  |  |  |  |  |  |  |
| COc1cc(/C=C/C(=O)c2c(C)nc3ccccc3c2C)ccc1OCCCOc1cc2c(cc1OC)C(=O)N1CCC[C@H]1C=N2 | 0.0428 µM | 0.0386 µM | 0.0868 µM | 1.15 µM |  |  |  | 0.817 µM | 0.0616 µM |  | 0.0149 µM | 0.0356 µM | 0.0227 µM | 0.03 µM | 0.0326 µM | 0.187 µM |  | 0.0583 µM | 0.0183 µM | 0.0321 µM |
| CC1C2CC(C(S(=O)(=O)N3CCOCC3)/C2=N\O)C1(C)C (stereo not drawn) | > 100 µM | > 100 µM |  | > 100 µM | > 100 µM | > 100 µM | > 100 µM | > 100 µM | > 100 µM | > 100 µM |  |  |  |  |  |  |  |  |  |  |
